Measurements taken from publication PMC12567082, “Silver(I) Complexes Bearing S-Alkyl Thiosalicylic Acid Derivatives: DNA/BSA Binding and Antitumor Activity In Vitro and In Vivo” (Pharmaceutics, 2025).

Key:
human lung cancer (A549) = test: MTT assay A549; type: cell-based
Description: (§1) Mouse breast cancer (4T1), human breast cancer (MDA-MB-468), mouse colon cancer (CT26), human colon cancer (HCT-116), mouse lung cancer (LLC1), human lung cancer (A549), mouse mesenchymal stem cells (mMSC), and human fibroblast cell lines (MRC-5) were used in this study and were consistently cultured in complete Dulbecco’s Modified Eagle Medium (DMEM) (Sigma-Aldrich, St. Louis, MO, USA) in incubator (5% CO2) under standard conditions. Complete DMEM was Dulbecco’s Modified Eagle Medium supplemented with 10% fetal bovine serum (FBS), 1 mmol/L penicillin–streptomycin, 1 mmol/L mixed nonessential amino acids, and 2 mmol/L L-glutamine (Sigma-Aldrich, St. Louis, MO, USA). All cancer cell lines and MRC-5 cell line were obtained from American Type Culture Collection (ATCC, Manassas, VA, USA), but mMSC was manufactured by Gibco (Middlesex County, MA, USA).
(§2) In 96-well microplates, we seeded cancer and non-cancer cells, more exactly 5 × 10^3 cells per well in 100 μL of complete DMEM (Sigma-Aldrich, St. Louis, MO, USA). […] Tested concentration range for all metal-based substances was 3.9–500 μM. After incubation with MTT solution (5 mg/mL; pH 7.2) for 4 h, optical density was determined using Zenyth 3100 microplate multimode detector (Salzburg, Austria). All experiments were performed three times, each in triplicate, and the IC50 values as well as selectivity indexes (IC50 for mMSC or MRC-5/IC50 for mouse or human cancer cells) were calculated.

BALB/C female mice = test: In vivo toxicity (serum biochemistry, liver and kidney histology); details: 6 mg/kg, H&E, day 30
Description: (§3) Ethics Committee of the Faculty of Medical Sciences of the University of Kragujevac, Serbia, approved all experiments (01-5301/11). ARRIVE guidelines and EU Directive 2010/63/EU for animal experiments were followed. Experimental animals, BALB/C female mice (8–10 weeks old), were housed under standard conditions (temperature-controlled environment, a 12 h light–dark cycle, fed ad libitum, and observed daily) throughout whole duration of experiment. Animals were inoculated with 4T1 cells (3 × 10^4) into the fourth mammary fat pad as previously described. Animals were randomly assigned to experimental or control groups, and after palpable tumors were detected, the pharmacological treatments were started. Female BALB/C mice intraperitoneally received either C3 (3 mg/kg), C3 (6 mg/kg), CDDP (6 mg/kg), or vehicle in distilled water with 0.05% DMSO (Sigma-Aldrich, St. Louis, MO, USA) (untreated group) in five single doses every third day (8 animals per group). Using electronic calipers (Moore and Wright, Sheffield, UK), the sizes of primary 4T1 mammary tumors were morphometrically evaluated. On the 30th day of experiment, animals were sacrificed, blood was collected (for determination of serum levels of ALT, AST, urea, and creatinine), and tissue sections (liver and kidney) were stained with H&E for further analysis. Liver or kidney sections were analyzed by two observers, and the injury levels were determined as previously reported.

[1] = system: Mouse breast cancer (4T1); test: MTT assay 4T1; type: cell-based
Description: as §1, §2

[2] = system: human colon cancer (HCT-116); test: MTT assay HCT116; type: cell-based
Description: as §1, §2

4T1 mammary tumors = test: Breast cancer development in vivo (orthotopic 4T1); set-up: species or system BALB/C female mice; details: 6 mg/kg i.p., five single doses every third day, after day 18
Description: as §3

[3] = system: human fibroblast cell lines (MRC-5); test: MTT assay MRC-5; type: cell-based
Description: as §1, §2

[4] = system: mouse mesenchymal stem cells (mMSC); test: MTT assay mMSC; type: cell-based; details: 24 h
Description: as §1, §2

[5] = system: human breast cancer (MDA-MB-468); test: MTT assay MDA-MB-468; type: cell-based
Description: as §1, §2

[6] = system: mouse colon cancer (CT26); test: MTT assay CT26; type: cell-based
Description: as §1, §2

mouse lung cancer (LLC1) = test: MTT assay LLC1; type: cell-based
Description: as §1, §2

CT-DNA [7] = system: CT-DNA; set-up: method as in PMID 25350363; details: cited from earlier work
CT-DNA [8] = test: UV-Vis absorption titration with CT-DNA; type: binding, calf; details: ΔG = −RT lnKb
Description: All DNA-binding studies were conducted in 0.01 M phosphate-buffered saline (PBS, pH 7.40) at 25 °C. […] To eliminate absorbance from CT-DNA, identical amounts of DNA were added to both the test and reference solutions prior to spectral recording.
Intrinsic binding constants (Kb) were calculated using the equation to determine the DNA-binding affinities of the complexes (1):[DNA]/(εa − εf) = [DNA]/(εb − εf) + 1 [Kb(εb − εf)](1)
[DNA] represents the concentration of DNA; apparent extinction coefficient, εa, was calculated as the ratio of the observed absorbance to the concentration of the complex (Aobs/[complex]); and εb and εf correspond to the extinction coefficients of the complex in the fully bound and free forms, respectively. Kb was determined from the ratio of the slope to the intercept obtained from the corresponding linear plots.

BSA = target: T1, BSA (Bos taurus, UniProt P02769); test: BSA tryptophan fluorescence quenching; type: binding, bovine
T1 construct: purchased Sigma-Aldrich
T1 sequence (P02769 25-607): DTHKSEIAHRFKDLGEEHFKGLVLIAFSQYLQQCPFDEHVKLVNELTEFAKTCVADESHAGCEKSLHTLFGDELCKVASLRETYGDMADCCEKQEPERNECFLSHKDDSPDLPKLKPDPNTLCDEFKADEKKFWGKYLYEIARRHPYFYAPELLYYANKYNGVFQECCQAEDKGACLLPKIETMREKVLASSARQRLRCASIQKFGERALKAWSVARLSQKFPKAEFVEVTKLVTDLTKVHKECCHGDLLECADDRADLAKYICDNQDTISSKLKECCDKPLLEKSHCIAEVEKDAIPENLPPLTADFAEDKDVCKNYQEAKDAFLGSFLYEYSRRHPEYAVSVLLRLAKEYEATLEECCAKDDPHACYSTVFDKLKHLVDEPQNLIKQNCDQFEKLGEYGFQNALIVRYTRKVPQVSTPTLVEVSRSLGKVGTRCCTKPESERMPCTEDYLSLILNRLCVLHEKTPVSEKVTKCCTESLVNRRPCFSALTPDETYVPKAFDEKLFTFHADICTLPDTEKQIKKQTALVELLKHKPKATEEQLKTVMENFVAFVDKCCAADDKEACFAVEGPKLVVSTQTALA
Description: The protein binding study was carried out using tryptophan fluorescence quenching experiments with BSA. […] Fluorescence emission spectra were recorded between 300 and 500 nm, with excitation at 295 nm.
The quenching constant Ksv was determined based on the Stern–Volmer relationship, as described by Equation (3):I0/I = 1 + kqτ0[Q] = 1 + Ksv[Q](3)
In this equation, I0 and I refer to the fluorescence intensities of BSA measured without and with the quencher (complex), τ0 represents the average fluorescence lifetime of free BSA (∼10^−8 s), and [Q] indicates the quencher concentration.
Parameters such as association binding constant (K) and the number of binding sites per albumin (n) were obtained from Scatchard Equation (4):(ΔI/I0)/[Q] = nK − KΔI/I0(4)
To minimize inner filter, both intensities of fluorescence originating from excitation and emission light absorption and re-absorption were corrected by employing Equation (5); Icor and Iobs are the corrected and observed fluorescence intensities, respectively, and Aex and Aem represent the absorbance of the metal complex at the excitation and emission wavelengths, respectively.Icor = Iobs · […]^(Aex + Aem)/2(5)

CT-DNA [9] = test: EB–CT-DNA fluorescence quenching; type: binding, calf; details: EB–CT-DNA 8.52 × 10^−5 M, PBS pH 7.4
Description: All samples were prepared in phosphate-buffered saline (PBS, pH 7.4). Stern–Volmer Equation (2) was used to interpret the fluorescence quenching data.

**Q.** For [NH2][Pt]([NH2])([Cl])[Cl] [CDDP, cisplatin, reference compound], which IC50 (human lung cancer (A549); A549, 24 h) is on record?
**A.** 23.2 ± 1.77 µM

**Q.** And the “Selectivity Index (IC50 mMSC or MRC-5/ IC50 Cancer Cell)” value (shortened to “Selectivity Index”) (human lung cancer (A549); A549, 24 h)?
**A.** 1.74

**Q.** And the IC50 (human lung cancer (A549); A549, 48 h)?
**A.** 14 ± 1.44 µM

**Q.** What about the “Selectivity Index” value (human lung cancer (A549); A549, 48 h) of the same molecule?
**A.** 1.95

**Q.** What about the “liver changes (histopathology)” value (BALB/C female mice) of the same molecule?
**A.** piecemeal necrosis, focal lytic necrosis, and portal inflammation

**Q.** And the IC50 ([1]; 4T1, 24 h)?
**A.** 12 ± 1.98 µM

**Q.** And the “Selectivity Index” value ([1]; 4T1, 24 h)?
**A.** 1.43

**Q.** What about the IC50 ([1]; 4T1, 48 h) of the same molecule?
**A.** 5.17 ± 0.98 µM

**Q.** What about the IC50 ([2]; HCT 116, 24 h) of the same molecule?
**A.** 63.3 ± 3.21 µM

**Q.** What about the IC50 ([2]; HCT 116, 48 h) of the same molecule?
**A.** 15.8 ± 1.28 µM

**Q.** And the “Selectivity Index” value ([2]; HCT-116, 24 h)?
**A.** 0.64

**Q.** And the “Selectivity Index” value ([2]; HCT-116, 48 h)?
**A.** 1.73

**Q.** What about the “tumor growth compared to the untreated group” value (4T1 mammary tumors) of the same molecule?
**A.** significantly slower

**Q.** What about the IC50 ([3]; MRC-5, 24 h) of the same molecule?
**A.** 40.5 ± 0.57 µM

**Q.** What about the IC50 ([3]; MRC-5, 48 h) of the same molecule?
**A.** 27.4 ± 0.72 µM

**Q.** What about the IC50 [4] of the same molecule?
**A.** 17.1 ± 1.15 µM

**Q.** And the IC50 ([5]; MDA-MB-468, 24 h)?
**A.** 4.06 ± 0.97 µM

**Q.** And the “Selectivity Index” value ([5]; MDA-MB-468, 24 h)?
**A.** 9.98

**Q.** And the IC50 ([6]; CT26, 24 h)?
**A.** 16.9 ± 1.42 µM

**Q.** What about the “Selectivity Index” value ([6]; CT26, 24 h) of the same molecule?
**A.** 1.01

**Q.** What about the IC50 (mouse lung cancer (LLC1); LLC1, 24 h) of the same molecule?
**A.** 21.8 ± 1.11 µM

**Q.** What about the “Selectivity Index” value (mouse lung cancer (LLC1); LLC1, 24 h) of the same molecule?
**A.** 0.79

**Q.** Which results are given for CSc1ccccc1C(=O)O [L1, S-methyl derivative of thiosalicylic acid]?
**A.** IC50 ([1]; 4T1, 48 h): 443 ± 30.5 µM; IC50 ([3]; MRC-5, 48 h): 488 ± 41.6 µM

**Q.** What does the source list for CCSc1ccccc1C(=O)O [L2, S-ethyl derivative of thiosalicylic]?
**A.** IC50 ([1]; 4T1, 48 h): 500 ± 7.6 µM; IC50 ([3]; MRC-5, 48 h): 384 ± 20.5 µM; IC50 ([6]; CT26, 48 h): 465 ± 39.5 µM

**Q.** Which results are given for CCCSc1ccccc1C(=O)O [L3, S-propyl derivative of thiosalicylic acid]?
**A.** IC50 (human lung cancer (A549); A549, 48 h): 500 ± 47.3 µM; IC50 ([1]; 4T1, 48 h): 500 ± 30.5 µM

**Q.** With CCCCSc1ccccc1C(=O)O [L4, S-butyl derivative of thiosalicylic] as the molecule, how does the IC50 (human lung cancer (A549); A549, 24 h) read?
**A.** 494.9 ± 3.58 µM

**Q.** And the IC50 (human lung cancer (A549); A549, 48 h)?
**A.** 490 ± 22 µM

**Q.** And the IC50 ([1]; 4T1, 24 h)?
**A.** 407 ± 35.1 µM

**Q.** What about the IC50 ([1]; 4T1, 48 h) of the same molecule?
**A.** 417 ± 61.4 µM

**Q.** What about the IC50 ([5]; MDA-MB-468, 48 h) of the same molecule?
**A.** 408 ± 12.7 µM

**Q.** And the IC50 ([6]; CT26, 48 h)?
**A.** 368 ± 58.3 µM

**Q.** For CC[n+]1c(-c2ccccc2)c2cc(N)ccc2c2ccc(N)cc21.[Br-] [ethidium bromide, 3,8-diamino-5-ethyl-6-phenylphenanthridinium bromide], which Kb (CT-DNA [7]) is on record?
**A.** (1.23 ± 0.07) × 10^5 M^−1

**Q.** With [Ag2(S-Methyl-Thiosal)2] [C1] as the molecule, how does the IC50 (human lung cancer (A549); A549, 24 h) read?
**A.** 58.3 ± 1.91 µM

**Q.** What about the “Selectivity Index” value (human lung cancer (A549); A549, 24 h) of the same molecule?
**A.** 0.79

**Q.** And the IC50 (human lung cancer (A549); A549, 48 h)?
**A.** 48.6 ± 1.06 µM

**Q.** What about the “Selectivity Index” value (human lung cancer (A549); A549, 48 h) of the same molecule?
**A.** 1.10

**Q.** What about the “ΔG (Gibbs free energy)” value (CT-DNA [8]) of the same molecule?
**A.** -27.8 kJ/mol

**Q.** And the IC50 ([1]; 4T1, 48 h)?
**A.** 4 ± 0.95 µM

**Q.** And the “kq (quenching rate constant)” value (BSA; BSA 2 µM)?
**A.** (1.7 ± 0.1) × 10^13 M^−1 s^−1

**Q.** And the “Ksv (Stern–Volmer constant)” value (BSA; BSA 2 µM, λex 295 nm)?
**A.** (1.7 ± 0.1) × 10^5 M^−1

**Q.** What about the “K (binding constant)” value (BSA; Scatchard equation) of the same molecule?
**A.** (1.7 ± 0.1) × 10^5 M^−1

**Q.** And the “n (number of binding sites)” value (BSA; Scatchard equation)?
**A.** 0.8

**Q.** And the “Ksv EB (Stern–Volmer constant)” value (CT-DNA [9])?
**A.** (6.0 ± 0.1) × 10^3 M^−1

**Q.** What about the IC50 ([3]; MRC-5, 24 h) of the same molecule?
**A.** 46.3 ± 1.52 µM

**Q.** What about the IC50 ([3]; MRC-5, 48 h) of the same molecule?
**A.** 53.2 ± 1.27 µM

**Q.** And the IC50 ([5]; MDA-MB-468, 24 h)?
**A.** 4.19 ± 0.98 µM

**Q.** What about the “Selectivity Index” value ([5]; MDA-MB-468, 24 h) of the same molecule?
**A.** 11.05

**Q.** What about the IC50 ([5]; MDA-MB-468, 48 h) of the same molecule?
**A.** 4.37 ± 0.41 µM

**Q.** What about the “Selectivity Index” value ([5]; MDA-MB-468, 48 h) of the same molecule?
**A.** 12.18

**Q.** What about the IC50 (mouse lung cancer (LLC1); LLC1, 24 h) of the same molecule?
**A.** 39.8 ± 1.07 µM

**Q.** What about the IC50 (mouse lung cancer (LLC1); LLC1, 48 h) of the same molecule?
**A.** 32 ± 1.47 µM
